# Source: US9730906B2, “α-derivatives of cis-monounsaturated fatty acids for use as medicines” (UNIVERSITAT DE LES ILLES BALEARS, priority 2008, dated 2017)
# How the values were obtained:
# A549 cells = experiment: Growth/viability of A549 lung cancer cells in culture (cell count); type: cell-based, human; design: key to Anti-tumour effect: + [inhibition of growth]; ++ [total halt of growth]; +++ [total removal of tumour cells]; details: for IC50: concentration that reduces the number of cells to half
# Method in brief: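 A549 cells were grown in RPMI with 10% serum at 37 °C under 5% CO2 and exposed to fatty-acid derivatives at 0–400 μM, or at 150 μM for 48 h. Cell number was counted by flow cytometry and expressed as percent of untreated control.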
# SF767 human tumour cells = experiment: Growth of SF767 tumour cells in culture; type: cell-based; design: key to Anti-tumour effect: + [inhibition of growth]; ++ [total halt of growth]; +++ [total removal of tumour cells]; key to Mechanism of action: P [anti-proliferative]; D [differentiation]; A [apoptosis]; details: for IC50: concentration that reduces the number of cells to half
# Description: In a second experimental series, designed to discover whether these molecules are effective in treatment of different types of tumours, the effect of OHOD at various concentrations on human cells of different types of cancer was studied. These experiments were performed as described before, except that the M220 and HT-29 cell lines were cultured in DMEM medium and the MDA-MB-231 line was incubated in Leibowitz L-15 medium supplemented with 15% foetal bovine […]. […] Where the nature of the tumour process requires, application can be topical (use on the skin of active products for the treatment of melanoma and other cutaneous abnormalities of cancerous nature), which can be considered as cosmetic treatments when attempts are made to correct aesthetic defects.
# hypertensive rats = experiment: Arterial pressure in hypertensive rats after 8-day treatment (Table 5); type: in vivo, rat; details: arterial pressure, hypertensive rats, 8-day treatment, 400 mg/kg oral
# [1] = Levels of cholesterol, triglycerides and glucose in rats after oral treatment; type: in vivo, rat; details: for % control CHO (cholesterol) / % control TG (triglycerides): rats, daily dose of 600 mg/kg oral, untreated controls = 100%
# Description: FIG. 13. The four bars, from left to right respectively, show the effect of treatments with vehicle (control, first bar), OHOD at 200 mg/kg (second bar), OHOD at 400 mg/kg (third bar) and OHOD at 600 mg/kg (fourth bar) on the cholesterol levels (group of four bars to the left), triglycerides (group of four bars in the middle) and glucose (group of four bars to the right). The treatments were oral in all cases and were maintained for 30 days. The values indicated are the average obtained in 6 animals per group.
# FIG. 14. Effect of treatment with vehicle (control) or with the fatty acids of the invention (600 mg/kg) on the levels of cholesterol, triglycerides and glucose. The values indicated are the average of the values obtained in 6 animals. Each group of three bars represents treatment with a different fatty acid with the left bar corresponding to cholesterol, the middle bar to triglycerides and the right bar to glucose.
# Metabolic diseases form a set of pathologies characterised by the accumulation or deficit of certain molecules (cholesterol, triglycerides, glucose, etc.) in the serum or tissues. These changes are the reflection of dysfunctions that are normally associated with errors in the activity of certain enzymes or in the control of these proteins. Among the most important metabolopathies are hypercholesterolemia (elevated levels of cholesterol), hypertriglyceridemia (elevated levels of triglycerides) and diabetes (elevated levels of glucose). These pathologies have high rates of incidence, morbidity and mortality, so that treatment is a first order necessity. […] For these experiments, the dose of fatty acid indicated (0, 200, 400 and 600 mg/kg) was supplied daily via the oral route. At the end of the treatment (30 days), blood was sampled from control and treated animals (n=6) and the levels of cholesterol, triglycerides and glucose were determined using standard colorimetric methods.
# In a further experiment, the effect of various molecules at a single dose (600 mg/kg) was investigated. […] In this sense, modification on the α-carbon and the double bond in cis configuration are crucial elements for producing the therapeutic effect indicated above. […] Finally, the effect of α-derivatives of cis-monounsaturated fatty acids on the prevention of obesity was investigated. For this, a model of rat obesity induced by a cafeteria diet, where the hypercaloric food increases the weight of the animals very markedly, was used. There were various experimental groups (see Table 3), each of which consisted of 6 female Wistar Kyoto rats of 250-300 g in weight. All the animals received a standard diet for 2 weeks. In addition, 2 of the groups received an oral preventative pre-treatment of vehicle and the other groups received 300 mg/kg of the fatty acids indicated below. Afterwards, one of the control groups was maintained on a standard diet (lean control) and the other was fed on a cafeteria diet (obese control). The treated animal groups were fed on the cafeteria diet. Preventative pre-treatment was maintained for all the groups. After two weeks on these diets, the lean control group had increased their body weight by an average of 16±16 g, while the obese control group had increased their body weight by an average of 43±17 g (statistically significance difference, p<0.01).
# [2] = Body weight of rats on cafeteria diet, no pre-treatment (Table 5); type: in vivo, rat; details: cafeteria diet for 2 weeks, 300 mg/kg daily oral, no pre-treatment
# Source text: The weight of treated animals was statistically less than the weight of obese control rats and statistically indistinguishable from that of lean control rats.
# [3] = OHOD 200, 400, 600 mg/kg oral daily, 30 days, Sprague-Dawley rats, p<0.05
smiles,measurement,setting,value
"CCCCCCCC/C=C\CCCCCCC(OC)C(=O)O (stereo not drawn) [MOOD, α-Methoxy-cis-Δ9-octadecenoic]",IC50,A549 cells,61 µM
same,IC50,SF767 human tumour cells,73 µM
same,PA (control 214 mmHg),hypertensive rats,142 mmHg
same,% control CHO (cholesterol),[1],65 % control
same,% control TG (triglycerides),[1],64 % control
same,Body weight (g) (control = 311 g),[2],279 g
CCCCCCCC/C=C\CCCCCCC(O)C(=O)[O-].[Na+] (centres unmarked) [Na-OHOD],IC50,A549 cells,47 µM
same,IC50,SF767 human tumour cells,52 µM
same,PA (control 214 mmHg),hypertensive rats,128 mmHg
same,% control CHO (cholesterol),[1],51 % control
same,% control TG (triglycerides),[1],32 % control
same,Body weight (g) (control = 311 g),[2],281 g
"CCCCCCCC/C=C\CCCCCCC(O)C(=O)O (stereo not drawn) [OHOD, α-Hydroxy-cis-Δ9-octadecenoic]",Anti-tumour effect,"A549 cells; A549, Lung",+++
same,Mechanism of action,"A549 cells; A549, Lung",P D
same,effect on tumour cells at 200 to 400 μM,"A549 cells; Doses of 200 to 400 μM, A549",total elimination of tumour cells
same,IC50,A549 cells,62 µM
same,Anti-tumour effect,"SF767 human tumour cells; SF-767, Glioma",++
same,Mechanism of action,"SF767 human tumour cells; SF-767, Glioma",D
same,IC50,SF767 human tumour cells,71 µM
same,PA (control 214 mmHg),hypertensive rats,146 mmHg
same,cholesterol levels,[1]; [3],significant reductions
same,glucose levels,[1]; [3],significant reductions
same,triglycerides levels,[1]; [3],significant reductions
same,% control CHO (cholesterol),[1],55 % control
same,% control TG (triglycerides),[1],38 % control
same,Body weight (g) (control = 311 g),[2],292 g
